{"source": "patent US8258099B2", "about": "“Pin1-modulating compounds and methods of use thereof” (Max-Planck-Gesellschaft zur Foerderung der Wissenschaften …, priority 2004, dated 2012)", "system": "X. laevis embryos", "assay": "Microinjection in X. laevis embryos, cell division", "type": "in vivo", "conditions": "for number of vital embryos: 5 hours", "experimental": "FIG. 8 depicts the blocking of cell division by the injection of peptide 17 in X. laevis embryos. 50-300 pmol of peptide 17 or 300 pmol of its nonphosphorylated derivative (control) dissolved in 10 nl PBS buffer were microinjected in the animal half of X. laevis embryos at stage 2 of development. Embryos with large and/or apoptotic appearing cells surrounded by normally developing cells were counted after further 5 hours (stage 8-9) of development. […] Each value is the average of four independent experiments.\nFIGS. 9A-F depicts phenotypic analysis of X. laevis embryos after injection of peptide 17. 300 pmol of peptide 17 or its nonphosphorylated derivative dissolved in 10 nl PBS buffer were injected in the animal half of X. laevis embryos at stage 2 of development. 1.5 hour at stage 6 (A), 2.5 hours at stage 7 (B) and 4-5 hours at stage 8-9 (C, D) after injection enlarged cells became visible. Cells that are blocked in cell division are marked with a white arrow. Controls of uninjected embryos of stage 8-9 and embryos that were injected with 300 pmol of the nonphosphorylated derivative of peptide 17 are shown in panels E and F. The site where the nonphosphorylated derivative of peptide 17 was injected is marked with a white arrow (F).\nFIGS. 10A-D depict the rescue of peptide 17 caused cell division block in X. laevis embryos by hPin1 (A, B) and different hPin1 variants (C, D). FIG. 10A depicts the time course of V5-tagged hPin1 expression was analyzed by preparation of X. laevis embryo lysate 1, 2 and 4 hours after injection of 1, 2 or 3 ng of V5-tagged hPin1 mRNA. In every case, the injected volume was 10 nl. Lysates were prepared in lysis buffer containing phosphatase and protease inhibitors. Samples were separated by SDS PAGE followed by western blotting. Endogenous XlPin1 and V5-tagged hPin1 were detected using an anti hPin1 PPIase domain antiserum as primary antibody followed by incubation with a horseradish peroxidase-conjugated secondary antibody. Visualization was done using the SuperSignal® substrate. […] In every case, the whole volume of injection was 10 nl. The indicated amount of the mRNA was injected in the animal half of 30 embryos at stage 2 of development. Embryos with large and/or apoptotic appearing cells surrounded by normally developed cells were counted after additional 5 hours of development (stage 8-9). […] Each percentage of vital embryos shown in the figure is the average of four independent experiments. FIG. 10C indicates the expression of V5-tagged hPin1 variants was evaluated by preparation of embryo lysate after 4 hours of injection of the respective mRNA (2 ng) in X. laevis embryos. Lysates were prepared in lysis buffer containing phosphatase and protease inhibitors. Samples were separated using SDS PAGE followed by western blot analysis. Endogenous XlPin1 and injected V5-tagged hPin1 variants were detected using an anti hPin1 PPIase domain antiserum as primary antibody and a horseradish peroxidase-conjugated secondary antibody. Visualization was done by a chemiluminescent reaction using the SuperSignal® substrate (Pierce). FIG. 10D depicts 250 pmol of peptide 17 was coinjected with 2 ng mRNA of the indicated V5-tagged hPin1 variant (whole volume 10 nl) in the animal half of 30 X. laevis embryos at stage 2 of development. Results were analyzed as described for FIG. 10B. Each percentage of vital embryos shown in the figure is the average of four independent experiments.\nMicroinjection was done into the animal half of X. laevis embryos at stage 2 of development. In every case, the injection volume was 10 nl. Immunofluorescence studies of frozen X. laevis embryo sections were performed as previously described (Julius et al., 2000). Ten-micrometer cryosections of stage 8 embryos were labelled using a monoclonal anti hPin1 antibody (mouse) followed by incubation with Alexa Fluor 546™-conjugated anti mouse antibody of goat serum (Molecular Probes). […]", "note": "Square brackets hold non-standard residues; d marks the D form. Peptide text beside a SMILES is read from it. d(pT) = C[C@H](OP(=O)(O)O)[C@@H](N)C(=O)O; 2Nal = N[C@@H](Cc1ccc2ccccc2c1)C(=O)O; Pip = O=C(O)[C@@H]1CCCCN1"}
{"smiles": "CC(=O)N[C@@H](Cc1ccccc1)C(=O)N[C@@H](C(=O)N1CCCC[C@H]1C(=O)N[C@@H](Cc1ccc2ccccc2c1)C(=O)N[C@@H](CCC(N)=O)C(N)=O)[C@H](C)OP(=O)(O)O", "note": "[Peptide 17, Ac-Phe-D-Thr(PO3H2)-Pip-Nal-Gln-NH2] (Ac-F[d(pT)][Pip][2Nal]Q-NH2)", "values": [{"measurement": "number of vital embryos", "setting": "250 pmol peptide 17, coinjection of 2 ng of V5-tagged hPin1 mRNA", "result": "up to 73%"}, {"measurement": "number of vital embryos", "setting": "250 pmol peptide 17, without coinjection of mRNA", "result": 18, "unit": "%"}, {"measurement": "normal embryos after microinjection", "setting": "300 pmol, stage 2 embryos, examined 5 hours after injection", "result": "very low number of normal embryos"}, {"measurement": "effect on development of the embryos", "setting": "microinjection at stage 2", "result": "cell cycle blockage and embryonic death"}]}
